Experimental data taken from PMC6669600 (Viruses, 2019).

Molecular target: T1, N39 (gp41 NHR-derived target mimic peptide) (Human immunodeficiency virus type 1 group M subtype B, UniProt P04578)
T1 construct: we further used the NHR-derived peptide N39
Assay: CD spectroscopy of inhibitor complexed with N39
Format: binding, HIV-1
Conditions: each peptide 10 μM in PBS, repeated two times, representative data

T1 sequence (P04578 528-566): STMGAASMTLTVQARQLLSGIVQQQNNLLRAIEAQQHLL

Row | Substance | α-helical content of complex with N39 [%]
1 | enfuvirtide | 53

Molecular target: N36 (gp41 NHR-derived target mimic peptide) (Human immunodeficiency virus type 1 group M subtype B, UniProt P04578)
Sequence (P04578 546-581): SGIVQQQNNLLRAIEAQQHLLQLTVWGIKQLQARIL
Assay: CD spectroscopy of inhibitor complexed with N36
Format: binding, HIV-1
Conditions: α-helical content of complex, each peptide 10 μM in PBS pH 7.2, 20 C, [θ]222; repeated two times, representative data

Row | Substance | CD data (with N36) Helix (%)
2 | Ac-MTWEEWDKKIEEYTKKIEEL-NH2 [MT-SC18EK] | 56.3
3 | Ac-MTWEEWDKKIEEYTKKIEELI-NH2 [MT-SC19EK] | 84.8
4 | Ac-MTWEEWDKKIEEYTKKIEELIK-NH2 [MT-SC20EK] | 82
5 | Ac-MTWEEWDKKIEEYTKKIEELIKK-NH2 [MT-SC21EK] | 83.9
6 | Ac-MTWEEWDKKIEEYTKKIEELIKKS-NH2 [MT-SC22EK] | 84.6
7 | Ac-MTWEEWDKKIEEYTKKIEELIKKSE-NH2 [MT-SC23EK] | 84.1
8 | Ac-MTWEEWDKKIEEYTKKIEELIKKSEE-NH2 [MT-SC24EK] | 83.8
9 | Ac-MTWEEWDKKIEEYTKKIEELIKKSEEQ-NH2 [MT-SC25EK] | 84.9
10 | Ac-MTWEEWDKKIEEYTKKIEELIKKSEEQQ-NH2 [MT-SC26EK] | 85.2
11 | Ac-MTWEEWDKKIEEYTKKIEELIKKSEEQQK-NH2 [MT-SC27EK] | 87.4
12 | Ac-MTWEEWDKKIEEYTKKIEELIKKSEEQQKK-NH2 [MT-SC28EK] | 84.5
13 | Ac-MTWEEWDKKIEEYTKKIEELIKKSEEQQKKN-NH2 [MT-SC29EK] | 92
14 | Ac-MTWEEWDKKIEEYTKKIEELIKKSEEQQKKNE-NH2 [MT-SC30EK] | 92.6
15 | Ac-MTWEEWDKKIEEYTKKIEELIKKSEEQQKKNEK-NH2 [MT-SC31EK] | 92.4
16 | Ac-MTWEEWDKKIEEYTKKIEELIKKSEEQQKKNEKE-NH2 [MT-SC32EK] | 91.8
17 | Ac-MTWEEWDKKIEEYTKKIEELIKKSEEQQKKNEKEL-NH2 [MT-SC33EK] | 93.8
18 | Ac-MTWEEWDKKIEEYTKKIEELIKKSEEQQKKNEKELK-NH2 [MT-SC34EK] | 92
19 | Ac-MTWEEWDRKIEEYTKKIEELIKKSQNQQEKN-NH2 [MT-WQ-EKN] | 90.6
20 | Ac-MTWEEWDRKIEEYTKKIEELIKKSQNQQIDL-NH2 [MT-WQ-IDL, reference compound] | 86.9

Row | Substance | CD data (with N36) Helix (%)
21 | Ac-WEEWDKKIEEYTKKIEELI-NH2 [SC19EK] | 80.3
22 | Ac-WEEWDKKIEEYTKKIEELIK-NH2 [SC20EK] | 78.8
23 | Ac-WEEWDKKIEEYTKKIEELIKK-NH2 [SC21EK] | 82.8
24 | Ac-WEEWDKKIEEYTKKIEELIKKS-NH2 [SC22EK] | 85.5
25 | Ac-WEEWDKKIEEYTKKIEELIKKSE-NH2 [SC23EK] | 80.7
26 | Ac-WEEWDKKIEEYTKKIEELIKKSEE-NH2 [SC24EK] | 79.9
27 | Ac-WEEWDKKIEEYTKKIEELIKKSEEQ-NH2 [SC25EK] | 78.4
28 | Ac-WEEWDKKIEEYTKKIEELIKKSEEQQ-NH2 [SC26EK] | 83.1
29 | Ac-WEEWDKKIEEYTKKIEELIKKSEEQQK-NH2 [SC27EK] | 85.7
30 | Ac-WEEWDKKIEEYTKKIEELIKKSEEQQKK-NH2 [SC28EK] | 87.7
31 | Ac-WEEWDKKIEEYTKKIEELIKKSEEQQKKN-NH2 [SC29EK, reference compound] | 88.9
32 | Ac-WEEWDKKIEEYTKKIEELIKKSEEQQKKNE-NH2 [SC30EK] | 92.9
33 | Ac-WEEWDKKIEEYTKKIEELIKKSEEQQKKNEK-NH2 [SC31EK] | 91.4
34 | Ac-WEEWDKKIEEYTKKIEELIKKSEEQQKKNEKE-NH2 [SC32EK] | 93.2
35 | Ac-WEEWDKKIEEYTKKIEELIKKSEEQQKKNEKEL-NH2 [SC33EK] | 94.1
36 | Ac-WEEWDKKIEEYTKKIEELIKKSEEQQKKNEKELK-NH2 [SC34EK, reference compound] | 92.6
37 | Ac-WEEWDRKIEEYTKKIEELIKKSQNQQEKN-NH2 [WQ-EKN] | 89.5
38 | Ac-WEEWDRKIEEYTKKIEELIKKSQNQQIDL-NH2 [WQ-IDL, reference compound] | 87.8
39 | Ac-WMEWDREINNYTSLIHSLIEESQNQQEKAEQELL-NH2 [C34N145A] | 81
